Experimental data as given in ChEMBL document CHEMBL4715821, “Discovery of 4-ethoxy-7H-pyrrolo[2,3-d]pyrimidin-2-amines as potent, selective and orally bioavailable LRRK2 inhibitors” (Bioorg Med Chem Lett, 2018).

What was measured:
[1] = biological target: Tyrosine-protein kinase ABL2 (Homo sapiens) (UniProt P42684); assay: Inhibition of wild-type human ABL2 (A248 to G542 residues) expressed in bacterial expression system assessed as residual activity at 1 uM by Kinomescan method relative to control
[2] = biological target: Calcium/calmodulin-dependent protein kinase type 1D (Homo sapiens) (UniProt Q8IU85); assay: Inhibition of wild-type human partial length CAMK1D (M1 to K299 residues) expressed in bacterial expression system assessed as residual activity at 1 uM by Kinomescan method relative to control
[3] = biological target: Calcium/calmodulin-dependent protein kinase kinase 1 (Homo sapiens) (UniProt Q8N5S9); assay: Inhibition of wild-type human partial length CAMKK1 (R65 to E414 residues) expressed in bacterial expression system assessed as residual activity at 1 uM by Kinomescan method relative to control
[4] = biological target: Serine/threonine-protein kinase Chk2 (Homo sapiens) (UniProt O96017); assay: Inhibition of CHK2 (unknown origin) assessed as residual activity at 1 uM by Kinomescan method relative to control
[5] = biological target: Dual specificity tyrosine-phosphorylation-regulated kinase 1B (Homo sapiens) (UniProt Q9Y463); assay: Inhibition of wild-type human full length DYRK1B (M1 to S629 residues) expressed in bacterial expression system assessed as residual activity at 1 uM by Kinomescan method relative to control
[6] = biological target: Ephrin type-A receptor 1 (Homo sapiens) (UniProt P21709); assay: Inhibition of wild-type human partial length EPHA1 (V588 to I913 residues) expressed in bacterial expression system assessed as residual activity at 1 uM by Kinomescan method relative to control
[7] = biological target: Ephrin type-A receptor 5 (Homo sapiens) (UniProt P54756); assay: Inhibition of wild-type human partial length EPHA5 (T627 to V930 residues) expressed in bacterial expression system assessed as residual activity at 1 uM by Kinomescan method relative to control
[8] = biological target: Ephrin type-B receptor 4 (Homo sapiens) (UniProt P54760); assay: Inhibition of wild-type human partial length EPHB4 (H585 to G892 residues) expressed in bacterial expression system assessed as residual activity at 1 uM by Kinomescan method relative to control
[9] = biological target: Fibroblast growth factor receptor 4 (Homo sapiens) (UniProt P22455); assay: Inhibition of wild-type human partial length FGFR4 (G402 to E713 residues) expressed in bacterial expression system assessed as residual activity at 1 uM by Kinomescan method relative to control
[10] = biological target: Tyrosine-protein kinase Fyn (Homo sapiens) (UniProt P06241); assay: Inhibition of wild-type human partial length FYN (T243 to L534 residues) expressed in bacterial expression system assessed as residual activity at 1 uM by Kinomescan method relative to control
[11] = biological target: Inhibitor of nuclear factor kappa-B kinase subunit beta (Homo sapiens) (UniProt O14920); assay: Inhibition of wild-type human full length IKK-beta (M1 to S756 residues) expressed in mammalian expression system assessed as residual activity at 1 uM by Kinomescan method relative to control
[12] = biological target: Tyrosine-protein kinase JAK1 (Homo sapiens) (UniProt P23458); assay: Inhibition of wild-type human partial length JAK1 JH2 pseudokinase domain (R537 to D855 residues) expressed in mammalian expression system assessed as residual activity at 1 uM by Kinomescan method relative to control
[13] = biological target: Mitogen-activated protein kinase kinase kinase kinase 5 (Homo sapiens) (UniProt Q9Y4K4); assay: Inhibition of wild-type human partial length MAP4K5 (M1 to P297 residues) expressed in bacterial expression system assessed as residual activity at 1 uM by Kinomescan method relative to control
[14] = biological target: Muscle, skeletal receptor tyrosine-protein kinase (Homo sapiens) (UniProt O15146); assay: Inhibition of wild-type human partial length MUSK (M553 to V869 residues) expressed in bacterial expression system assessed as residual activity at 1 uM by Kinomescan method relative to control
[15] = biological target: Myosin light chain kinase (Homo sapiens) (UniProt Q32MK0); assay: Inhibition of wild-type human partial length MLCK (D488 to K800 residues) expressed in bacterial expression system assessed as residual activity at 1 uM by Kinomescan method relative to control
[16] = biological target: Serine/threonine-protein kinase PAK 6 (Homo sapiens) (UniProt Q9NQU5); assay: Inhibition of wild-type human partial length PAK6 (N298 to C681 residues) expressed in bacterial expression system assessed as residual activity at 1 uM by Kinomescan method relative to control
[17] = biological target: Phosphorylase b kinase gamma catalytic chain, liver/testis isoform (Homo sapiens) (UniProt P15735); assay: Inhibition of wild-type human partial length PHKG2 (M1 to W300 residues) expressed in bacterial expression system assessed as residual activity at 1 uM by Kinomescan method relative to control
[18] = biological target: Protein kinase C epsilon type (Homo sapiens) (UniProt Q02156); assay: Inhibition of PKCepsilon (unknown origin) assessed as residual activity at 1 uM by Kinomescan method relative to control
[19] = biological target: Protein kinase C gamma type (Homo sapiens) (UniProt P05129); assay: Inhibition of PKCgamma (unknown origin) assessed as residual activity at 1 uM by Kinomescan method relative to control
[20] = biological target: cGMP-dependent protein kinase 1 (Homo sapiens) (UniProt Q13976); assay: Inhibition of PKG1beta (unknown origin) assessed as residual activity at 1 uM by Kinomescan method relative to control
[21] = biological target: Serine/threonine-protein kinase PLK1 (Homo sapiens) (UniProt P53350); assay: Inhibition of wild-type human partial length PLK1 (A33 to F325 residues) expressed in mammalian expression system assessed as residual activity at 1 uM by Kinomescan method relative to control
[22] = biological target: Serine/threonine-protein kinase 16 (Homo sapiens) (UniProt O75716); assay: Inhibition of wild-type human partial length STK16 (G11 to I305 residues) expressed in bacterial expression system assessed as residual activity at 1 uM by Kinomescan method relative to control
[23] = biological target: Serine/threonine-protein kinase ULK2 (Homo sapiens) (UniProt Q8IYT8); assay: Inhibition of wild-type human partial length ULK2 (M1 to S301 residues) expressed in mammalian expression system assessed as residual activity at 1 uM by Kinomescan method relative to control
[24] = biological target: Serine/threonine-protein kinase tousled-like 1 (Homo sapiens) (UniProt Q9UKI8); assay: Inhibition of wild-type human partial length TLK1 (K447 to A754 residues) expressed in bacterial expression system assessed as residual activity at 1 uM by Kinomescan method relative to control

Chain of Calcium/calmodulin-dependent protein kinase kinase 1 (Homo sapiens) (Q8N5S9 whole entry, looked up, the tested form may be a part): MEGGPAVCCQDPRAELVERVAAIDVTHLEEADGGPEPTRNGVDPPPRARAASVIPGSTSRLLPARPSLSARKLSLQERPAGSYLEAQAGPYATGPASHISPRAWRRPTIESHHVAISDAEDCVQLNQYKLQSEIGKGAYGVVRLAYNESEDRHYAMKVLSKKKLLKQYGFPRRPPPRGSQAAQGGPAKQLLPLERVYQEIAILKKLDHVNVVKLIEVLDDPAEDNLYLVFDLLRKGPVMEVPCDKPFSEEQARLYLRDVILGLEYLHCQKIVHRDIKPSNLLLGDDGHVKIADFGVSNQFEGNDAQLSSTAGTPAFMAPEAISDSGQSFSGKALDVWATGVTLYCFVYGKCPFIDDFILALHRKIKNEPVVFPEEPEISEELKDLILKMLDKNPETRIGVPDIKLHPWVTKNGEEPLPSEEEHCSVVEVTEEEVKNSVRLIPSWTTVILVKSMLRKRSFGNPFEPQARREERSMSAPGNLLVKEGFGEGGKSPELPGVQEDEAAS
Chain of Ephrin type-A receptor 1 (Homo sapiens) (P21709 whole entry, the tested form may be a part): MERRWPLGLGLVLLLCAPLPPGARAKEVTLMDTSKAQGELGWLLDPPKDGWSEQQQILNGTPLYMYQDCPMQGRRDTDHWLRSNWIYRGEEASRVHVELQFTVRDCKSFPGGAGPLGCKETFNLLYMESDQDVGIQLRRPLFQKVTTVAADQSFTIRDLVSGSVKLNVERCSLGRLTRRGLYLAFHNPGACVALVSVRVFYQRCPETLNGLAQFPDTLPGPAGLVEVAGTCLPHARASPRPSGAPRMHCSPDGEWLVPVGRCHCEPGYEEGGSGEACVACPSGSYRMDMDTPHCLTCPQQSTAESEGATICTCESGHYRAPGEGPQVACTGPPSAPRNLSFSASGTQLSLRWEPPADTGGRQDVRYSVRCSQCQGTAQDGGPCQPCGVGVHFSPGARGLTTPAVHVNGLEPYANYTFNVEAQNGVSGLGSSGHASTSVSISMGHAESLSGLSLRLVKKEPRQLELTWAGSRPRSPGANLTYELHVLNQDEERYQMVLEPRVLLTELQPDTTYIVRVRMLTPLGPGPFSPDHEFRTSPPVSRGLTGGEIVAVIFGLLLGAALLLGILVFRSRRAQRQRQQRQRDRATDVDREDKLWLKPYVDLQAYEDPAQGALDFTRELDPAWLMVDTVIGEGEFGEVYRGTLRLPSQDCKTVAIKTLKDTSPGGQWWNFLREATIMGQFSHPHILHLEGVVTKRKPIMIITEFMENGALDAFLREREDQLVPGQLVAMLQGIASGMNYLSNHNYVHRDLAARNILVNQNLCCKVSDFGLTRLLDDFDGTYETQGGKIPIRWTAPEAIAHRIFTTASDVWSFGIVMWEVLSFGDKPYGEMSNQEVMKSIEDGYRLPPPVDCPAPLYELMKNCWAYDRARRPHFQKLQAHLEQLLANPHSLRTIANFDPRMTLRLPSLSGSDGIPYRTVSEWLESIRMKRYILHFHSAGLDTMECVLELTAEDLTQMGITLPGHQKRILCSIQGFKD
Chain of Ephrin type-B receptor 4 (Homo sapiens) (P54760 whole entry, the tested form may be a part): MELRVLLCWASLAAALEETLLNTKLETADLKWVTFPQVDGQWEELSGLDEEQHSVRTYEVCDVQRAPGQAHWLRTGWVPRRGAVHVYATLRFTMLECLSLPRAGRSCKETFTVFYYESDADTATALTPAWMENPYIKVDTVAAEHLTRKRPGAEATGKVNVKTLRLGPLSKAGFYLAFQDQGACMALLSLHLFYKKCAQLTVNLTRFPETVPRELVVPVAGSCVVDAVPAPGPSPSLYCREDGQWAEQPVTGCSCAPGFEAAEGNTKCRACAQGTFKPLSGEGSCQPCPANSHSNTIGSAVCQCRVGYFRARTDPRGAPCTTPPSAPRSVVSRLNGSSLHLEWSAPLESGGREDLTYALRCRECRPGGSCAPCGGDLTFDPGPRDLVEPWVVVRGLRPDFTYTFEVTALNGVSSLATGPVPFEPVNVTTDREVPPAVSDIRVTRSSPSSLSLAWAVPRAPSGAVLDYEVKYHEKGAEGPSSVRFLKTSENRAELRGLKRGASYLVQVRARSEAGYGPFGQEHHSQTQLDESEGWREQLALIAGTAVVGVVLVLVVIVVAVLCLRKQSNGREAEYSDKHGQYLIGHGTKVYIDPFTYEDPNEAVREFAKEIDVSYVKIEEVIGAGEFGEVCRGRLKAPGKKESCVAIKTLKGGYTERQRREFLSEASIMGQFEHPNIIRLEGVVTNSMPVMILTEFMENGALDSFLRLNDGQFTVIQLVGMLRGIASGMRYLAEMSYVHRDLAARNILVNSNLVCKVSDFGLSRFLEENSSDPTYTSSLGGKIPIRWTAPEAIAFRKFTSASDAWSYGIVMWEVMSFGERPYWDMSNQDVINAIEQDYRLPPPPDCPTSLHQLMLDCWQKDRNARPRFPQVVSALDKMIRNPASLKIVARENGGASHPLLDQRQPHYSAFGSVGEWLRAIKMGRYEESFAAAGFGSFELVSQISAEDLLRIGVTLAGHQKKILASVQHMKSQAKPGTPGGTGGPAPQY
Chain of Serine/threonine-protein kinase PAK 6 (Homo sapiens) (Q9NQU5 whole entry, looked up, the tested form may be a part, canonical isoform): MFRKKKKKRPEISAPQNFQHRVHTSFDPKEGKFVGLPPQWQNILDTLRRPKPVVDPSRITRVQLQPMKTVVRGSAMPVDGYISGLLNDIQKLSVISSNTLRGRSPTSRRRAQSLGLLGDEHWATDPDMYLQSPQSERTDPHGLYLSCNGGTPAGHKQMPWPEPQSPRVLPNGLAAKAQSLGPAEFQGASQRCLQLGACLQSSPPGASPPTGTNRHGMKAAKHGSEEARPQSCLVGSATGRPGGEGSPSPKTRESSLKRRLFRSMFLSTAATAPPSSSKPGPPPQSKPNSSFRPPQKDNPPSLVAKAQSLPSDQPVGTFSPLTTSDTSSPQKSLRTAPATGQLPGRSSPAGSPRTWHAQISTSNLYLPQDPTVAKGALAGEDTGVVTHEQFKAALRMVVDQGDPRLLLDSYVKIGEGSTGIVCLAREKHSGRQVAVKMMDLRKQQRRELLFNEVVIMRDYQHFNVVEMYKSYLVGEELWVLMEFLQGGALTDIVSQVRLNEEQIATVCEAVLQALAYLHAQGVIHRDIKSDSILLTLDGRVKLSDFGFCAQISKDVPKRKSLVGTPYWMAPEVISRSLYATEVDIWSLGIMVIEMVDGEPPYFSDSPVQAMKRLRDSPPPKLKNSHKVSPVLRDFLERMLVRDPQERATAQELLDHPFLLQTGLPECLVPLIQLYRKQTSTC
Chain of Dual specificity tyrosine-phosphorylation-regulated kinase 1B (Homo sapiens) (Q9Y463 whole entry, looked up, the tested form may be a part): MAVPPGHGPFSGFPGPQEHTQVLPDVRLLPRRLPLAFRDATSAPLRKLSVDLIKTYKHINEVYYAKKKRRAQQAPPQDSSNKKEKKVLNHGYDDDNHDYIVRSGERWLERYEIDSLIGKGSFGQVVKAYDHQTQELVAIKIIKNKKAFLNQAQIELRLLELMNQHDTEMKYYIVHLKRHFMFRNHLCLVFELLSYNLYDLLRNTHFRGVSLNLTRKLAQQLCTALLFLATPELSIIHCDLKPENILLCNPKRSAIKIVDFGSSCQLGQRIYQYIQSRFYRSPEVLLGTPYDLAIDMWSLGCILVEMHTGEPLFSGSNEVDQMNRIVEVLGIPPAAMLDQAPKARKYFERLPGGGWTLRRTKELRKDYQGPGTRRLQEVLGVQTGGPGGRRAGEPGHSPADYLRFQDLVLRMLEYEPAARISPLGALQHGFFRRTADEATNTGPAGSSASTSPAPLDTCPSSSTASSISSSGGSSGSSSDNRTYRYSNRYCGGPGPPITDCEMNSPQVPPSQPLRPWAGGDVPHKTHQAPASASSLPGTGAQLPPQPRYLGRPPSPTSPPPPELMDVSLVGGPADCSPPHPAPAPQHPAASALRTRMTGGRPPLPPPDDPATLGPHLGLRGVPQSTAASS
Chain of Tyrosine-protein kinase Fyn (Homo sapiens) (P06241 2-537 limits assumed): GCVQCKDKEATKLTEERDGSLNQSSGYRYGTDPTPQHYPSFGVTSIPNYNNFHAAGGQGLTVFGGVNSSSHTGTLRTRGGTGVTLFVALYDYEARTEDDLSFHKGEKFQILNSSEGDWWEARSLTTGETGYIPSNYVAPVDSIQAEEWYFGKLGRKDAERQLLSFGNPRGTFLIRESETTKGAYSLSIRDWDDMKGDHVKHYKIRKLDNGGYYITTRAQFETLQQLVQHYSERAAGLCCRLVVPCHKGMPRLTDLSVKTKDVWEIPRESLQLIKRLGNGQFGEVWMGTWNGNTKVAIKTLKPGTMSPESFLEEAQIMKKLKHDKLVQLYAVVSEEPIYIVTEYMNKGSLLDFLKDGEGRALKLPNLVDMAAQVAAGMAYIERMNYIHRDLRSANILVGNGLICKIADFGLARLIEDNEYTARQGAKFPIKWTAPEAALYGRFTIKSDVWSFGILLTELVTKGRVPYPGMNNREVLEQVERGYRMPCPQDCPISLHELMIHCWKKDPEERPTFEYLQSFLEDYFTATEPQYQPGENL

In the case of `CCOc1nc(Nc2ccc(C(=O)N3CCOCC3)cc2OC)nc2[nH]ccc12`, the Activity [1] was 89.4%, the Activity [2] was 122% and the Activity [3] was 101%. The Activity [4] was 16.8%, the Activity [5] was 66.9% and the Activity [6] was 95.5%. The Activity [7] was 103%, the Activity [8] was 96.3% and the Activity [9] was 83.7%. The Activity [10] was 109%, the Activity [11] was 101% and the Activity [12] was 97.3%. The Activity [13] was 101%, the Activity [14] was 72.9% and the Activity [15] was 15.8%. The Activity [16] was 99.2%, the Activity [17] was 90.6% and the Activity [18] was 95%. The Activity [19] was 101%, the Activity [20] was 90.3% and the Activity [21] was 87.8%. For the same compound, the Activity [22] was 98.7%, the Activity [23] was 101% and the Activity [24] was 98.1%.
